# Reference: US5902815A, “Use of 5HT-2A serotonin agonists to prevent adverse effects of NMDA receptor hypofunction” (priority 1996, dated 1999)
# Entries after “also recorded” stand apart in the source; their conditions may differ. Read-outs that look alike come from different tables or passages of the source.
# Columns and labels:
# [1] = system: NR/hypo-induced vacuoles in PC/RS cortical neurons (MK-801); experiment: Anti-psychotic drugs and sigma blockers: protection against NR/hypo-induced vacuoles; format: in vivo, rats; conditions: for ED50: Rattus norvegicus, Cortical neurone, read-out: ED50 in protecting against NR/hypo-induced vacuoles; for ED50 / activity in protecting against NR/hypo-induced vacuoles (words): ip; for activity in protecting against NR/hypo-induced vacuoles (words) / effect on vacuole formation: rats, MK-801; for activity in protecting against NR/hypo-induced vacuoles (words): sulpiride given only 15 minutes prior to MK-801
# Procedure: Several of the antipsychotic agents tested (haloperidol, thioridazine and loxapine) are known to interact with both dopamine receptors and sigma receptors.
# Control animals received saline or DMSO, but no anti-psychotic drugs. Test animals were injected ip with an antipsychotic drug, listed above and in Table 2. Vacuoles were counted and data were processed as described in Example 1.
# [2] = system: vacuolated pyramidal neurons of posterior cingulate and retrosplenial (PC/RS) cortices, MK-801 neurotoxicity; experiment: Blocking MK-801 neurotoxicity (vacuolated PC/RS cortical neurons) in rats by serotonergic agents; format: in vivo, adult female rats; conditions: for ED50: Rattus norvegicus, Pyramidal neuron, read-out: ED50 in blocking MK-801 neurotoxicity, rats
# Procedure: Each test rat also received a 5HT-2A/2C agonist drug (LSD, DOB, DOI, or DOM), while control rats received an inert carrier liquid as a placebo. After 4 hours, the rats were sacrificed, and brain tissue from specific regions which are susceptible to NR/hypo damage (layers III and IV of the posterior cingulate (PC) and retrosplenial (RS) cortices) were examined for vacuoles in the neurons, which are an indicator of toxic neuronal injury induced by NMDA receptor hypofunction.
# DOI was purchased from Research Biochemicals International (Natick, Mass.).
# (§1) For each test agent, at least 20 rats were used, and at least four dosages were tested.
# (§2) The rats were sacrificed four hours after drug administration, and brain tissue from the PC/RS region was histopathologically evaluated by previously described methods using double-blinded techniques (Olney et al 1991). The number of vacuolated PC and RS neurons were counted on each side of the brain at a rostrocaudal level immediately posterior to where the corpus callosum ceases decussating across the midline (approximately 5.6 mm caudal to Bregma; Paxinos & Watson, The Rat Brain in Stereotaxic Coordinates, 2d Ed., 1986).
# This drug is widely used in Europe, and is a 5HT-2A agonist but a 5HT-2C antagonist.
# It is described in Nozulak et al 1993.
# 5HT2C receptors = conditions: Burris et al 1991 or other literature; cited from earlier work
# 5HT-2A receptors = conditions: Burris et al 1991 or other literature; cited from earlier work
# schizophrenia = conditions: cited from earlier work
# humans = conditions: cited from earlier work; for psychotomimetic reactions / psychosis in humans: NMDA antagonists
# cerebrocortical neurons = conditions: cited from earlier work
# craving for cocaine = conditions: Sershen 1994; cited from earlier work
# [3] = system: NMDA receptors in chick embryo retina; experiment: Excitotoxicity in chick embryo retina (NMDA with MK-801, LSD or DOI); conditions: MK-801 500 nM plus NMDA 40 μM, with or without LSD or DOI 500 nM to 100 μM; n=6 per condition
# Procedure: Several tests were performed to ensure that when a 5HT-2A agonist is administered together with an NMDA antagonist, the 5HT-2A agonist will not interfere with the activity of the NMDA antagonist drug at NMDA receptors.
# These experiments were performed using segments of chick embryo retina. This is a widely used model for studying the production and prevention of excitotoxic phenomena, since it is simple and inexpensive. Chick tissue is used, since it tends to provide a better model of adult mammalian tissue than embryonic or juvenile mammalian tissue. Unlike newborn mammals, which are usually blind at birth, baby chicks can see quite well as soon as they emerge from the shell, and the NMDA receptors in chick retinal tissue are fully mature and functional.
# In these tests, NMDA was introduced into the incubation medium in a concentration (40 μM) sufficient to produce a fully developed excitotoxic lesion within 30 min, displaying acute degeneration and necrosis of the majority of neurons in the inner layers of the retina.
# [4] = system: pyramidal neurons in layers III and IV of the posterior cingulate (PC) and retrosplenial (RS) cortices; experiment: Neurotoxic reaction to MK-801 in control rats (vacuolated neurons per section); format: in vivo, adult female rats; conditions: MK-801 0.5 mg/kg sc plus vehicle; ± SEM; n=26
# Procedure: as §1, §2
# 5HT-3 = conditions: cited from earlier work
# 5HT-7 = conditions: cited from earlier work
# 5HT-6 = conditions: cited from earlier work
# 5HT-2C = conditions: cited from earlier work
# 5HT-2A/2C receptor = experiment: 5HT-2A/2C antagonist block of agonist protection against MK-801 neurotoxicity; format: in vivo, adult female rats
# Text: The following example confirms that the neuroprotective effects provided by 5HT-2A/2C agonists are mediated through either the 5HT-2A or 5HT-2C receptor (or both), rather than through cross-reactivity at some other receptor or through some other mechanism. This was done by showing that these neuroprotective effects are blocked by selective 5HT-2A/2C antagonists.
# Ritanserin is an antagonist drug that selectively blocks activation of 5HT-2A/2C receptors.
# The brains were processed and the severity of damage was assessed as described in Example 1. Results were analyzed by analysis of covariance (ANCOVA) where the dose of DOI was the covariate and the presence of ritanserin served as the classification (treatment) variable. The homogeneity of slopes assumption was tested by determining whether there was a significant interaction between the covariate and the treatment variable.
# [5] = system: NMDA antagonist toxic side effects; experiment: Safener drugs against NMDA antagonist toxic side effects (earlier findings); format: in vivo; conditions: Applicants' discovery, no data given
# [6] = ip, 4 h, MK-801 0.5 mg/kg sc, test compound ip, dose reducing mean vacuolated neurons to 50% of control, 4 h
# [7] = Olney et al 1989, Corso et al 1994, adult rat
smiles,measurement,setting,value
CCN1CCCC1CNC(=O)c1cc(S(N)(=O)=O)ccc1OC (stereo not shown) [Sulpiride],ED50,[1],> 200 mg/kg
same,activity in protecting against NR/hypo-induced vacuoles (words),[1],Inactive
same,activity in protecting against NR/hypo-induced vacuoles (words),[1]; listed as sulpiride,inactive
"COc1cc(CC(C)N)c(OC)cc1I (stereo not shown) [DOI, 1-(2,5-dimethoxy-4-iodophenyl)-2-aminopropane]",protection against NMDA antagonist toxicity with SDZ SER-082 added,"[2]; DOI n=29, SDZ SER-082 added to block 5HT-2C receptor",found to protect against NMDA antagonist toxicity
same,ED50,[2]; [6],1.05 mg/kg
same,activity at 5HT-2C receptors,5HT2C receptors,selectively activate 5HT-2A and 5HT-2C receptors with higher affinity than other 5HT receptors
same,activity at 5HT-2A receptors,5HT-2A receptors,selectively activate 5HT-2A and 5HT-2C receptors with higher affinity than other 5HT receptors
Clc1ccc2c(c1)C(N1CCNCC1)=Nc1ccccc1O2 [Amoxapine],ED50,[1],75 mg/kg
N[C@@H](Cc1c[nH]c2ccccc12)C(=O)O [tryptophan],effect on symptoms of schizophrenia,schizophrenia; schizophrenic patients,can exacerbate the symptoms and displays of schizophrenia
CN1CC[C@@H]2CN3CCc4cccc(c43)[C@@H]2C1.O=C(O)/C=C/C(=O)O [SDZ SER-082],effect on MK-801 neurotoxicity,"[2]; selective 5HT-2C antagonist, n=22","did not affect MK-801 neurotoxicity, either positively or negatively"
same,activity at 5HT-2C receptors,5HT2C receptors,selective 5HT-2C antagonist
"COc1cccc([C@H](O)C2CCN(CCc3ccc(F)cc3)CC2)c1OC [MDL 100,907]",activity at 5HT-2C receptors,5HT2C receptors,does not substantially affect 2C receptors
same,activity at 5HT-2A receptors,5HT-2A receptors,preferentially antagonizes 2A receptors
"CCN(CC)C(=O)[C@@H]1C=C2c3cccc4[nH]cc(c34)C[C@H]2N(C)C1 [LSD, lysergic acid diethylamide]",ED50,[2]; [6],0.68 mg/kg
same,ED50 in blocking MK-801 neurotoxicity,"[2]; rats, MK-801 0.5 mg/kg sc, test compound ip, dose reducing mean vacuolated neurons to 50% of control, 4 h, 240 min",0.67 mg/kg
same,activity at 5HT-2C receptors,5HT2C receptors,agonizes 5HT-2A and 5HT-2C receptors
same,activity at 5HT-2A receptors,5HT-2A receptors,agonizes 5HT-2A and 5HT-2C receptors
CNC1(c2ccccc2Cl)CCCCC1=O (stereo not shown) [Ketamine],psychotomimetic reactions / psychosis in humans,humans,produces symptoms in normal humans that are indistinguishable from the symptoms of psychosis and thought disorder seen in schizophrenia
same,duration of action,"humans; anesthetic, intravenous",about 15 minutes
same,pathomorphological changes in brain,"cerebrocortical neurons; rat, in vivo",cause pathomorphological changes in the cerebral cortex of adult rats
CC[C@H]1C[C@H]2C[C@H]3c4[nH]c5ccc(OC)cc5c4CCN(C2)[C@@H]13 [ibogaine],suppression of craving for cocaine,craving for cocaine,can suppress the craving for cocaine
CCNC(C)Cc1cccc(C(F)(F)F)c1 (stereo not shown) [fenfluramine],effect on symptoms of schizophrenia,schizophrenia; schizophrenic patients,can exacerbate the symptoms and displays of schizophrenia
Cc1cc2c(s1)Nc1ccccc1N=C2N1CCN(C)CC1 [Olanzapine],ED50,[1],1.4 mg/kg
same,effect on vacuole formation,[1],shown to reduce vacuole formation
c1ccc(C2(N3CCCCC3)CCCCC2)cc1 [Phencyclidine],psychotomimetic reactions / psychosis in humans,humans,can induce a psychosis which is clinically indistinguishable from schizophrenia
same,pathomorphological changes in brain,cerebrocortical neurons; [7],produce pathomorphological changes in various corticolimbic regions of the adult rat brain
CCNC1(c2cccs2)CCCCC1=O (stereo not shown) [Tiletamine],pathomorphological changes in brain,cerebrocortical neurons; [7],cause pathomorphological changes in the cerebral cortex of adult rats
O=C(CCCN1CCC(O)(c2ccc(Cl)cc2)CC1)c1ccc(F)cc1 [Haloperidol],ED50,[1],5.1 mg/kg
CCN(CC)C(=O)N[C@H]1C=C2c3cccc4[nH]cc(c34)C[C@H]2N(C)C1 [Lisuride],hallucinations,humans; in vivo,does not cause hallucinations
same,prevention of the neurotoxic action of MK-801 / vacuole formation,"[2]; rats, 5HT-2A/2C agonists, ip",can prevent vacuole formation caused by MK-801
"COc1cc(CC(C)N)c(OC)cc1Br (stereo not shown) [DOB, 1-(2,5-dimethoxy-4-bromophenyl)-2-aminopropane]",ED50,[2]; [6],0.36 mg/kg
same,activity at 5HT-2C receptors,5HT2C receptors,selectively activate 5HT-2A and 5HT-2C receptors with higher affinity than other 5HT receptors
same,activity at 5HT-2A receptors,5HT-2A receptors,selectively activate 5HT-2A and 5HT-2C receptors with higher affinity than other 5HT receptors
"Cc1ccccc1N=C(N)Nc1ccccc1C [Di(2-tolyl)guanidine, di(2-tolyl)guanidine]",ED50,[1],22.2 mg/kg
"C[C@]12N[C@H](Cc3ccccc31)c1ccccc12 [MK-801, (+)-5-methyl-10,11-dihydro-5H-di[a,d]cyclohepten-5,10-imine]",protection against NMDA excitotoxic damage,[3],completely protected against excitotoxic damage; also recorded: showed no cytopathology
same,mean number of vacuolated neurons per section,[4],223±10.5
CN1CCN(C2=Nc3cc(F)ccc3Cc3ccccc32)CC1 [Fluperlapine],ED50,[1],2.3 mg/kg
same,effect on vacuole formation,[1],shown to reduce vacuole formation
CN1CCN(C2=Nc3cc(Cl)ccc3Nc3ccccc32)CC1 [Clozapine],affinity for 5HT-3,5HT-3,high affinity
same,affinity for 5HT-7,5HT-7,high affinity
same,affinity for 5HT-6,5HT-6,high affinity
same,ED50,[1],3.2 mg/kg
same,affinity for 5HT-2C,5HT-2C,high affinity
Cc1nc2sccn2c(=O)c1CCN1CCC(=C(c2ccc(F)cc2)c2ccc(F)cc2)CC1 [ritanserin],effect of antagonist on DOI's protection,"5HT-2A/2C receptor; ritanserin 0.03 mg/kg ip plus various doses of DOI, F(1,84)=23.36, p<0.0005",competitively blocks DOI's protective effects against the toxic side effects of MK-801; also recorded: significantly interfered with DOI's protection
same,shift of the DOI blocking curve by ritanserin,"5HT-2A/2C receptor; ritanserin 0.03 mg/kg ip, FIG. 3",shifted the blocking curve to the right
same,effect on positive symptoms of schizophrenia,"schizophrenia; hallucinations, delusions","did not help relieve ""positive"" symptoms"
same,effect on symptoms of schizophrenia,schizophrenia; schizophrenic patients,"only helped relieve certain ""negative"" symptoms of schizophrenia"
same,effect on exacerbation of schizophrenia by mCPP,"schizophrenia; schizophrenic patients, mCPP",can be blocked
CN1CCN(C2=Nc3ccccc3Oc3ccc(Cl)cc32)CC1 [Loxapine],ED50,[1],23.6 mg/kg
"COc1cc(CC(C)N)c(OC)cc1C (stereo not shown) [DOM, 1-(2,5-dimethoxy-4-methylphenyl)-2-aminopropane]",ED50,[2]; [6],0.81 mg/kg
same,activity at 5HT-2C receptors,5HT2C receptors,selectively activate 5HT-2A and 5HT-2C receptors with higher affinity than other 5HT receptors
same,activity at 5HT-2A receptors,5HT-2A receptors,selectively activate 5HT-2A and 5HT-2C receptors with higher affinity than other 5HT receptors
CSc1ccc2c(c1)N(CCC1CCCCN1C)c1ccccc1S2 (stereo not shown) [Thioridazine],ED50,[1],55.3 mg/kg
C[C@@H]1CN(CCCn2c3ccccc3c3ccccc32)C[C@H](C)N1 [Rimcazole],ED50,[1],17.8 mg/kg
C=CCC1(C(C)CCC)C(=O)NC(=O)NC1=O (stereo not shown) [secobarbitol],prevention of NMDA antagonist toxic side effects,[5],prevent NMDA antagonists from causing toxic side effects
